According to patent publication US12052991B2, “Substituted pyridinyloxybenzenes and salts thereof and use thereof as herbicidal agents” (Bayer Aktiengesellschaft, priority 2018, dated 2024):

Assays:
Assay type in all cases: in vivo
[1] = system: Echinochloa crus-galli (ECHCG); assay: Herbicidal pre-emergence action, test C (Table C1); details: dosage 1280 g/ha; visual scoring after about 3 weeks; 100% = plants have died, 0% = like control plants
Text: (§1) Seeds of mono- and dicotyledonous weed plants were placed in plastic pots in sandy loam soil (doubly sown with one species each of mono- or dicotyledonous weed plants per pot) and covered with soil. The compounds of the invention, formulated in the form of wettable powders (WP) or as emulsion concentrates (EC), were then applied onto the surface of the covering soil as aqueous suspension or emulsion with addition of 0.5% additive at a water application rate of 600 liters per hectare (converted). After the treatment, the pots were placed in a greenhouse and kept under good growth conditions for the test plants. After about 3 weeks, the effect of the preparations was scored visually in comparison with untreated controls as percentages. For example, 100% activity=the plants have died, 0% activity=like control plants. Tables C1 to C12 below show the effects of selected compounds of the general formula (I) according to Table 1 on various harmful plants and an application rate corresponding to 1280 or 320 g/ha, which were obtained by the experimental procedure mentioned above.

Lolium rigidum (LOLRI) [2] = assay: Herbicidal pre-emergence action, test C (Table C2); details: dosage 1280 g/ha; visual scoring after about 3 weeks; 100% = plants have died, 0% = like control plants
Text: as §1

[3] = system: Abutilon theophrasti (ABUTH); assay: Herbicidal pre-emergence action, test C (Table C5); details: visual scoring after about 3 weeks, 100% = plants have died, 0% = like control plants
Procedure, shortened: (§2)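 Application rates of 1280 or 320 g/ha were delivered as WP or EC formulations in water with 0.5% additive, 600 L/ha, onto soil covering freshly sown seeds in sandy loam. Pots stayed under good greenhouse growth conditions, and efficacy was rated as visual percent after about 3 weeks.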

[4] = system: Matricaria inodora (MATIN); assay: Herbicidal pre-emergence action, test C (Table C7); details: visual scoring after about 3 weeks, 100% = plants have died, 0% = like control plants
Procedure, shortened: as §2

Poa annua (POAAN) [5] = assay: Herbicidal pre-emergence action, test C (Table C3); details: visual scoring after about 3 weeks, 100% = plants have died, 0% = like control plants
Procedure, shortened: as §2

Stellaria media (STEME) [6] = assay: Herbicidal pre-emergence action, test C (Table C8); details: visual scoring after about 3 weeks, 100% = plants have died, 0% = like control plants
Procedure, shortened: as §2

Lolium rigidum (LOLRI) [7] = assay: Herbicidal post-emergence action (Table B2); details: 1280 g/ha; rated visually after about 3 weeks; 100% = plants have died, 0% = like control plants
Experimental: Seeds of mono- and dicotyledonous weed plants were placed in plastic pots in sandy loam soil (doubly sown with in each case one species of mono- or dicotyledonous weed plants per pot), covered with soil and cultivated in a greenhouse under controlled growth conditions. 2 to 3 weeks after sowing, the test plants were treated at the one-leaf stage. The compounds of the invention, formulated in the form of wettable powders (WP) or as emulsion concentrates (EC), were applied onto the green parts of the plants as aqueous suspension or emulsion with addition of 0.5% additive at a water application rate of 600 liters per hectare (converted). After the test plants had been kept in the greenhouse under optimum growth conditions for about 3 weeks, the activity of the preparations was rated visually in comparison to untreated controls. For example, 100% activity=the plants have died, 0% activity=like control plants. Tables B1 to B12 below show the effects of selected compounds of the general formula (I) according to Table 1 on various harmful plants and an application rate corresponding to 1280 or 320 g/ha, which were obtained by the experimental procedure mentioned above.

[8] = system: Abutilon theophrasti (ABUTH); assay: Herbicidal post-emergence action (Table B5); details: rated visually after about 3 weeks, 100% = plants have died, 0% = like control plants
Procedure, shortened: (§3)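 Activity was scored visually against untreated plants roughly 3 weeks after treatment, 0% meaning like control and 100% plant death. Application was post-emergence onto green parts at the one-leaf stage, as aqueous suspension/emulsion with 0.5% additive, 600 l/ha, delivering 1280 or 320 g/ha to greenhouse plants in sandy loam.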

[9] = system: Amaranthus retroflexus (AMARE); assay: Herbicidal pre-emergence action, test C (Table C6); details: visual scoring after about 3 weeks, 100% = plants have died, 0% = like control plants
Procedure, shortened: as §2

[10] = system: Echinochloa crus-galli (ECHCG); assay: Herbicidal post-emergence action (Table B1); details: rated visually after about 3 weeks, 100% = plants have died, 0% = like control plants
Procedure, shortened: as §3

Poa annua (POAAN) [11] = assay: Herbicidal post-emergence action (Table B3); details: rated visually after about 3 weeks, 100% = plants have died, 0% = like control plants
Procedure, shortened: as §3

Setaria viridis (SETVI) = assay: Herbicidal pre-emergence action, test C (Table C4); details: visual scoring after about 3 weeks, 100% = plants have died, 0% = like control plants
Procedure, shortened: as §2

Stellaria media (STEME) [12] = assay: Herbicidal post-emergence action (Table B8); details: visual rating about 3 weeks after treatment, 100% = plants have died, 0% = like control plants
Procedure, shortened: as §3

[13] = system: harmful plants ABUTH, AMARE, ECHCG, LOLRI, MATIN, POAAN, SETVI, STEME, ALOMY, DIGSA, KCHSC and VERPE; assay: Herbicidal post-emergence action, summary of Tables B1-B12; details: application rate of 1280 or 320 g of active ingredient per hectare; summary in words
Procedure, shortened: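 Activity scored by eye roughly 3 weeks post-treatment against untreated plants, from 0% (no effect) to 100% (plants dead). Application rates were 1280 or 320 g/ha, as aqueous WP/EC spray plus 0.5% additive at 600 L/ha, onto one-leaf-stage weeds grown 2–3 weeks in sandy loam.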

[14] = system: Amaranthus retroflexus (AMARE); assay: Herbicidal post-emergence action (Table B6); details: visual rating about 3 weeks after treatment, 100% = plants have died, 0% = like control plants
Procedure, shortened: as §3

[15] = system: harmful plants ABUTH, AMARE, ECHCG, LOLRI, MATIN, POAAN, SETVI, STEME, ALOMY, DIGSA, KCHSC and VERPE; assay: Herbicidal pre-emergence action (test C), summary of Tables C1-C12; details: application rate of 1280 or 320 g of active ingredient per hectare; summary in words
Procedure, shortened: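 Visual % damage versus untreated plants (0% = like control, 100% = died) was scored after about 3 weeks in the greenhouse. Before emergence, seeds sown in sandy loam got a soil-surface spray of compound as WP or EC plus 0.5% additive, using 600 L/ha water at rates of 1280 or 320 g/ha.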

Fc1cccc(Oc2ccccn2)c1-c1cc(C(F)F)no1 [Example 1-16]
90%: Pre-emergence action against Echinochloa crus-galli (ECHCG) [1] | Pre-emergence action against Matricaria inodora (MATIN) ([4]; dosage 320 g/ha) | Post-emergence action against Echinochloa crus-galli (ECHCG) ([10]; 320 g/ha)
100%: Pre-emergence action against Lolium rigidum (LOLRI) (Lolium rigidum (LOLRI) [2]) | Pre-emergence action against Abutilon theophrasti (ABUTH) ([3]; dosage 320 g/ha) | Pre-emergence action against Abutilon theophrasti (ABUTH) ([3]; dosage 1280 g/ha) | Pre-emergence action against Matricaria inodora (MATIN) ([4]; dosage 1280 g/ha) | Pre-emergence action against Poa annua (POAAN) (Poa annua (POAAN) [5]; dosage 320 g/ha) | Pre-emergence action against Poa annua (POAAN) (Poa annua (POAAN) [5]; dosage 1280 g/ha) | Pre-emergence action against Stellaria media (STEME) (Stellaria media (STEME) [6]; dosage 320 g/ha) | Pre-emergence action against Stellaria media (STEME) (Stellaria media (STEME) [6]; dosage 1280 g/ha) | Post-emergence action against Lolium rigidum (LOLRI) (Lolium rigidum (LOLRI) [7]) | Post-emergence action against Abutilon theophrasti (ABUTH) ([8]; 320 g/ha) | Post-emergence action against Abutilon theophrasti (ABUTH) ([8]; 1280 g/ha) | Pre-emergence action against Amaranthus retroflexus (AMARE) ([9]; dosage 320 g/ha) | Pre-emergence action against Amaranthus retroflexus (AMARE) ([9]; dosage 1280 g/ha) | Post-emergence action against Echinochloa crus-galli (ECHCG) ([10]; 1280 g/ha) | Post-emergence action against Poa annua (POAAN) (Poa annua (POAAN) [11]; 320 g/ha) | Post-emergence action against Poa annua (POAAN) (Poa annua (POAAN) [11]; 1280 g/ha) | Pre-emergence action against Setaria viridis (SETVI) (Setaria viridis (SETVI); dosage 320 g/ha) | Pre-emergence action against Setaria viridis (SETVI) (Setaria viridis (SETVI); dosage 1280 g/ha) | Post-emergence action against Stellaria media (STEME) (Stellaria media (STEME) [12]; dosage 320 g/ha) | Post-emergence action against Stellaria media (STEME) (Stellaria media (STEME) [12]; dosage 1280 g/ha) | Post-emergence action against Amaranthus retroflexus (AMARE) ([14]; dosage 320 g/ha) | Post-emergence action against Amaranthus retroflexus (AMARE) ([14]; dosage 1280 g/ha)
very good herbicidal activity: herbicidal activity against the harmful plants of Tables B1-B12 in post-emergence treatment [13] | herbicidal activity against the harmful plants of Tables C1-C12 in pre-emergence treatment [15]
